Assay: recombinant UMI read abundance after kanamycin selection (control-corrected) (log10(CPM+1)); higher = more efficient recombination; extreme values may be limits of the assay; sequences stand for … in AGTGCAGAGAAAATCGGCCAGTTTTCTCTGCCTGCAGTCCGCATGCCGTGGGACCCCTTGGGTTCTAACCTGTTGCCTAGATTTATGCAGCGGACTGCCTTTCTCCCAAAGTGATAAACCGG…AGGTTGGTTTCACT; site = the 11-nt donor
Method in brief: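 Pooled Escherichia coli screen of donor and donor-binding-loop pairs for the IS621 bridge recombinase. Each pair sits with a 12-nt UMI on a plasmid carrying a promoterless kanamycin gene. The library was co-electroporated with a target plasmid encoding a fixed target and T7-inducible recombinase, then plated with IPTG (0.07 mM) plus kanamycin, or unselected, each in two replicates. Recombinant UMIs were PCR-amplified across the donor–target junction and sequenced. Counts became CPM, averaged over replicates, scaled by control-derived factors and reported as log10(CPM+1).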

Row | Sequence | recombinant UMI read abundance (log10)
1 | ACTCTTTCATGGACCGGTTTTCCCGGTAATCCGTATTTGTT (site ACTCTTTCTAA) | 0.0432
2 | ACTGAGGCATGGACCGGTTTTCCCGGTAATCCGTATTTGAA (site ACTGAGGCTTT) | 1.73
3 | ACTGCAGCATGGACCGGTTTTCCCGGTAATCCGTATTTGCA (site ACTGCAGCTTG) | 1.21
4 | ACTGTACCATGGACCGGTTTTCCCGGTAATCCGTATTTGCA (site ACAGTATCTTG) | 0.00951
5 | ACTGTACCATGGACCGGTTTTCCCGGTAATCCGTATTTGCA (site ACTGTACCTTG) | 0
6 | ACTGTGTCATGGACCGGTTTTCCCGGTAATCCGTATTTGAC (site AATGTGTCTGT) | 0
7 | ACTGTGTCATGGACCGGTTTTCCCGGTAATCCGTATTTGAC (site ACTGTGTCTGT) | 0
8 | ACTGTGTCATGGACCGGTTTTCCCGGTAATCCGTATTTGAC (site AGTGTGTCTGT) | 0
9 | ACTGTGTCATGGACCGGTTTTCCCGGTAATCCGTATTTGAC (site ATTGTGTCTGT) | 0
10 | ACTTAATCATGGACCGGTTTTCCCGGTAATCCGTATTTGTA (site ACTTAATCTTA) | 2.15
11 | ACTTAGTCATGGACCGGTTTTCCCGGTAATCCGTATTTGCC (site ACTTAGTCTGG) | 2.47
12 | ACTTATGCATGGACCGGTTTTCCCGGTAATCCGTATTTGGA (site AATTATGCTTC) | 0.425
13 | ACTTATGCATGGACCGGTTTTCCCGGTAATCCGTATTTGGA (site ACTTATGCTTC) | 1.41
14 | ACTTATGCATGGACCGGTTTTCCCGGTAATCCGTATTTGGA (site AGTTATGCTTC) | 0.698
15 | ACTTATGCATGGACCGGTTTTCCCGGTAATCCGTATTTGGA (site ATTTATGCTTC) | 0.623
16 | ACTTCCGCATGGACCGGTTTTCCCGGTAATCCGTATTTGTT (site ACTTCCGCTAA) | 1.5
17 | ACTTCTCCATGGACCGGTTTTCCCGGTAATCCGTATTTGAT (site ACTTCTCCTAT) | 0.78
18 | ACTTGAACATGGACCGGTTTTCCCGGTAATCCGTATTTGAG (site ACTAGAACTCT) | 0.0666
19 | ACTTGAACATGGACCGGTTTTCCCGGTAATCCGTATTTGAG (site ACTCGAACTCT) | 0.999
20 | ACTTGAACATGGACCGGTTTTCCCGGTAATCCGTATTTGAG (site ACTGGAACTCT) | 1.23
21 | ACTTGAACATGGACCGGTTTTCCCGGTAATCCGTATTTGAG (site ACTTGAACTCT) | 0.998
22 | AGAAACACATGGACCGGTTTTCCCGGTAATCCGTATTTGGT (site AGAAACACTAC) | 2.3
23 | AGAAAGACATGGACCGGTTTTCCCGGTAATCCGTATTTGCA (site AGAAAGACTTG) | 2.6

Row | Sequence | recombinant UMI read abundance (log10)
24 | AGAAAGACATGGACCGGTTTTCCCGGTAATCCGTATTTGCA (site AGCAAGACTTG) | 1.59
25 | AGAAAGACATGGACCGGTTTTCCCGGTAATCCGTATTTGCA (site AGGAAGACTTG) | 0.932
26 | AGAAAGACATGGACCGGTTTTCCCGGTAATCCGTATTTGCA (site AGTAAGACTTG) | 1.15
27 | AGAAAGGCATGGACCGGTTTTCCCGGTAATCCGTATTTGAT (site AGAAAGGCTAA) | 0.418
28 | AGAAAGGCATGGACCGGTTTTCCCGGTAATCCGTATTTGAT (site AGAAAGGCTAC) | 0
29 | AGAAAGGCATGGACCGGTTTTCCCGGTAATCCGTATTTGAT (site AGAAAGGCTAG) | 0
30 | AGAAAGGCATGGACCGGTTTTCCCGGTAATCCGTATTTGAT (site AGAAAGGCTAT) | 2.28
31 | AGAACGCCATGGACCGGTTTTCCCGGTAATCCGTATTTGCC (site AGAACGCCTGG) | 0.968
32 | AGAATGACATGGACCGGTTTTCCCGGTAATCCGTATTTGCA (site AGAATGACTTG) | 2.63
33 | AGAATGACATGGACCGGTTTTCCCGGTAATCCGTATTTGCA (site AGGAAGACTTG) | 1.53
34 | AGAATGTCATGGACCGGTTTTCCCGGTAATCCGTATTTGGG (site AGAATGTCTCC) | 2.01
35 | AGAATTTCATGGACCGGTTTTCCCGGTAATCCGTATTTGGG (site AGAATTTCTCC) | 0.964
36 | AGACAGCCATGGACCGGTTTTCCCGGTAATCCGTATTTGCA (site AGACAGCCTTG) | 1.21
37 | AGACGCACATGGACCGGTTTTCCCGGTAATCCGTATTTGTT (site AGACGCACTAA) | 1.79
38 | AGAGAAGCATGGACCGGTTTTCCCGGTAATCCGTATTTGCG (site AGAGAAGCTCG) | 3.09
39 | AGAGATCCATGGACCGGTTTTCCCGGTAATCCGTATTTGAA (site AGAGATCCTTT) | 2.01
40 | AGAGATTCATGGACCGGTTTTCCCGGTAATCCGTATTTGGC (site AGAGATTCTGC) | 2.95
41 | AGAGCTTCATGGACCGGTTTTCCCGGTAATCCGTATTTGGG (site AGAGCTTCTCC) | 1.06
42 | AGAGGAGCATGGACCGGTTTTCCCGGTAATCCGTATTTGGC (site AGAGGAGCTGC) | 1.01
43 | AGAGGATCATGGACCGGTTTTCCCGGTAATCCGTATTTGCA (site ACAGTATCTTG) | 1.59
44 | AGAGGATCATGGACCGGTTTTCCCGGTAATCCGTATTTGCA (site AGAGGATCTTG) | 2.04
45 | AGAGGCACATGGACCGGTTTTCCCGGTAATCCGTATTTGAC (site AGAGGCACTGT) | 2.32
46 | AGAGTGGCATGGACCGGTTTTCCCGGTAATCCGTATTTGCT (site AGAGTGGCTAG) | 2.62

Row | Sequence | recombinant UMI read abundance (log10)
47 | AGAGTGTCATGGACCGGTTTTCCCGGTAATCCGTATTTGCA (site ACAGTATCTTG) | 2.56
48 | AGAGTGTCATGGACCGGTTTTCCCGGTAATCCGTATTTGCA (site AGAGTGTCTTG) | 3.45
49 | AGATAATCATGGACCGGTTTTCCCGGTAATCCGTATTTGCT (site AGATAATCTAG) | 3.3
50 | AGATCATCATGGACCGGTTTTCCCGGTAATCCGTATTTGCT (site AGATCATCTAG) | 1.56
51 | AGATCATCATGGACCGGTTTTCCCGGTAATCCGTATTTGCT (site CGATCATCTAG) | 0.477
52 | AGATCATCATGGACCGGTTTTCCCGGTAATCCGTATTTGCT (site GGATCATCTAG) | 0.911
53 | AGATCATCATGGACCGGTTTTCCCGGTAATCCGTATTTGCT (site TGATCATCTAG) | 1.75
54 | AGATGGGCATGGACCGGTTTTCCCGGTAATCCGTATTTGAG (site AGATGGGCTCT) | 1.06
55 | AGATTAGCATGGACCGGTTTTCCCGGTAATCCGTATTTGAC (site AGATTAGCTGT) | 2.75
56 | AGATTATCATGGACCGGTTTTCCCGGTAATCCGTATTTGGA (site AGATTATCTTC) | 1.9
57 | AGATTCTCATGGACCGGTTTTCCCGGTAATCCGTATTTGTG (site AGATTCTCTCA) | 2.63
58 | AGCAGAGCATGGACCGGTTTTCCCGGTAATCCGTATTTGAG (site AGCAGAGCTCT) | 2.54
59 | AGCAGTACATGGACCGGTTTTCCCGGTAATCCGTATTTGAT (site AGCAGTACTAT) | 1.79
60 | AGCATTGCATGGACCGGTTTTCCCGGTAATCCGTATTTGAA (site AGCATTGCTTT) | 2.4
61 | AGCATTTCATGGACCGGTTTTCCCGGTAATCCGTATTTGAC (site AGCATTTCTGT) | 0.795
62 | AGCATTTCATGGACCGGTTTTCCCGGTAATCCGTATTTGAC (site AGCCTTTCTGT) | 0
63 | AGCATTTCATGGACCGGTTTTCCCGGTAATCCGTATTTGAC (site AGCGTTTCTGT) | 0
64 | AGCATTTCATGGACCGGTTTTCCCGGTAATCCGTATTTGAC (site AGCTTTTCTGT) | 0.236
65 | AGCCACCCATGGACCGGTTTTCCCGGTAATCCGTATTTGTT (site AGCCACCCTAA) | 0.0153
66 | AGCCACCCATGGACCGGTTTTCCCGGTAATCCGTATTTGTT (site CGCCACCCTAA) | 0.026
67 | AGCCACCCATGGACCGGTTTTCCCGGTAATCCGTATTTGTT (site GGCCACCCTAA) | 0
68 | AGCCACCCATGGACCGGTTTTCCCGGTAATCCGTATTTGTT (site TGCCACCCTAA) | 0

Reference: the supplement of paper PMC11208160
